Literature values, collected in patent US8710097B2, “Flavonoid dimers and methods of making and using such” (The Hong Kong Polytechnic University, priority 2006, dated 2014).

Tested on: Ltrmdr1
Settings: literature; cited from earlier work

## COc1ccc(-c2oc3c(CC=C(C)C)c(O)cc(O)c3c(=O)c2O)cc1 [8-dimethylallylkaempferide]
  modulation (inhibition of Ltrmdr1) compared with cyclosporine A or verapamil: better modulator than either cyclosporine A or verapamil
